According to patent publication US8946507B2, “Method of selectively producing male or female sterile plants” (priority 2002, dated 2015):

Key:
[1] = system: Nicotiana tabacum var. Samsun (transgenic, D-amino acid oxidase under female floral promoter); assay: Conditional female sterility of transgenic tobacco expressing D-amino acid oxidase in female floral tissue, treated with D-amino acids; assay type: in vivo; conditions: for seed production after treatment: foliar spray usually 0.25-20 kg/ha, root drench or 10-200 mM solution into buds, prior to or during early flower formation; for viable pollen production after treatment: same treatment conditions as for seed production
Protocol: Tobacco leaf discs are transformed with the recombinant binary vectors using methods similar to those described in Horsch et al (1985) Science, 227, 1229-1231 Many variations of the method may be used. The binary vector can be transformed into, for example, Agrobacterium tumefaciens strain LBA 4404 using the freeze thaw method of transformation. Tobacco transformation and whole plant regeneration is performed using Nicotiana tabacum var. Samsun according to protocols described by Draper et al (Plant Genetic Transformation, Blackwell Sci. Pub. 1989). Transformation events are selected on MS-media containing kanamycin or other suitable antibiotic. The presence of integrated transgenes is confirmed by PCR. Plants are regenerated and allowed to reach maturity and selfed on to produce seed. Northern and/or Western analysis is used to confirm tissue-specific expression of the D-amino acid oxidase genes. […] Seeds of the T1 generation are planted out. Once plantlets have grown to a sufficient size they are tested by PCR for the presence of transgene. PCR positive plants are transferred to the greenhouse. […] A subset of these (putatively) conditionally sterile plants are treated with D-phosphinothricin or D-alanine or D leucine or D asparagine or D methionine or D-aspartate or D-glutamate in various amounts and at varying growth stages. […] For example these amino acids are pure D enantiomers or, alternatively, are DL racemates. For example, they are applied as a foliar spray, prior to or during the early stages of flower formation, at rates usually between 0.25 and 20 kg/ha. Amino acids which may crystallise out of solution on the leaves following foliar application may be redissolved and remobilised for leaf uptake by further applications of water as a spray mist. Amino acids are, for example, also applied as a root drench and optionally, further applied as ˜50 ul of a 10-200 mM solution flooded directly into the buds of emerging florets. Pollen from the treated plants is collected and viability is tested. […] Control plants are both transgenic and non-transgenic and are grown under identical conditions and under an identical regime of physical treatments except that treatment solutions are either water or an equivalent concentration of pure L-amino acid.

[2] = system: mutant forms of R. gracilis D amino acid oxidase; assay: Oxygen electrode assay, control experiments with pure enantiomers; assay type: biochemical, Rhodotorula gracilis; conditions: rate relative to DL phosphinothricin, depending on concentration
Protocol: Approximately 7 g wet weight of cells is washed in water. The cells are resuspended in an equal volume of 50 mM/Mops/KOH buffer at pH 7.0 containing 2 mM EDTA, 2 mM DTT and 0.01 mM FAD. Cells are evenly suspended using a glass homogeniser and then disrupted using a one shot head in the Constant Systems (BudBrooke Rd, Warwick U.K.) Basic Z cell disrupter at 13500 psi. The crude extract is kept cold (˜4° C.) centrifuged at 30,000 gav for 1 h and the pellet discarded. Some of the extract protein is run out on an SDS PAGE gel stained with Coomassie Blue and, through side by side comparison with similarly prepared extracts of cells containing only ‘empty’ pET vector it is estimated that 2-50% of the total soluble protein in the extract is D-amino acid oxidase. Some of the extract protein is exchanged into 50 mM Mops/KOH buffer at pH 7.0 containing 0.01 mM FAD. This is diluted with the same buffer in a standard oxygen electrode cell (calibrated at 25° C. between zero and a saturated concentration of oxygen). Optionally, the D-amino acid oxiadse is further purified using ion-exchange, phenyl sepharose, fractional ammonium sulphate precipitation and gel filtration. Assays, at 25° C., are started by addition of a 200 mM solution of the ammonium salt of DL phosphinothricin to the diluted enzyme. […] Rates of oxygen consumption (after substraction of any drift in the bases line) are measured. […]

[3] = target: T1, M213R (arginine replacement for methionine) mutant form of R. gracilis D amino acid oxidase (Rhodotorula toruloides, UniProt P80324, M213R); assay: Oxygen electrode assay of D-amino acid oxidase activity, M213R mutant, crude E. coli extract; assay type: biochemical; conditions: 25° C., 50 mM Mops/KOH pH 7.0, 0.01 mM FAD; ammonium salt of DL phosphinothricin; estimated enzyme purity in extract 35+/-15% of total protein
T1 construct: made in house; host or cells: E. coli BL21 DE3 (Novagen pET 24A, T7 promoter)
Excerpt: (§1) Additionally a series of particular DNA sequences encoding particularly targeted D-amino acid oxidase enzymes are generated. In particular, genes encoding Rhodotorula gracilis D amino acid oxidase with an arginine, serine, cysteine, lysine, asparagine or alanine replacing the methionine at position 213 and/or a histidine, serine, cysteine, asparagine or alanine replacing the tyrosine at position 238. The methods used are the same as described above except that, rather than a mixture of oligonucleotides, individual oligonucleotide pairs are designed and used to effect each single or double amino acid change. Each resulting mutant D-amino acid oxidase coding sequence is cloned for (untagged) expression behind the T7 promoter in Novagen pET 24A and transformed into E. coli BL21 DE3. The cells are grown in a 1.0 l fermenter in LCM50 medium supplemented with 100 ug/ml kanamycin, induced for expression with 1 mM IPTG and harvested by low-speed centrifugation.
(§2) Approximately 7 g wet weight of cells is washed in water. The cells are resuspended in an equal volume of 50 mM/Mops/KOH buffer at pH 7.0 containing 2 mM EDTA, 2 mM DTT and 0.01 mM FAD. […] Rates of oxygen consumption (after substraction of any drift in the bases line) are measured. […]

[4] = target: T2, M213S (serine replacement for methionine) mutant form of R. gracilis D amino acid oxidase (Rhodotorula toruloides, UniProt P80324, M213S); assay: Oxygen electrode assay of D-amino acid oxidase activity, M213S mutant, crude E. coli extract; assay type: biochemical; conditions: 25° C., 50 mM Mops/KOH pH 7.0, 0.01 mM FAD; ammonium salt of DL phosphinothricin; estimated enzyme purity in extract 35+/-15% of total protein
T2 construct: made in house; host or cells: E. coli BL21 DE3 (Novagen pET 24A, T7 promoter)
Excerpt: as §1, §2

[5] = system: Nicotiana tabacum (transgenic, stig 1 D-amino acid oxidase and plastocyanin/PAT); assay: Transgenic tobacco (stig1 D-amino acid oxidase M213R plus plastocyanin promoter PAT) sprayed with DL phosphinothricin; assay type: in vivo
Excerpt: In one variant of the method, the amino acid applied is racemic DL phosphinothricin. In this case, the DNA construct used for transformation comprises, in addition to the DNA sequence encoding a D-amino acid oxidase under operable expression control of a tissue specific female floral promoter region such as ‘stig 1’, also a DNA sequence (EMBL: A02774) a ‘PAT’ gene under operable control of a promoter region such as the region 5′ of the translational start of the plastocyanin gene of the Pisum sativum plastocyanin gene (EMBL accession number X16082). For example, the construct is the same as depicted in FIG. 1 except that the DNA sequence encoding D-amino acid oxidase is site-specifically mutated so that the M213R form of the enzyme is encoded. The plastocyanin promoter region provides for preferential expression in the green tissues of the plant. […] Thus, in this variant of the example, the non-phytotoxic substance D phosphinothricin is applied in its least costly and most readily available form as the commercial herbicide DL phosphinothricin racemate.

[6] = system: tobacco plants (transgenic, TA 29 D-amino acid oxidase and plastocyanin/PAT); assay: Transgenic tobacco (TA 29 D-amino acid oxidase plus plastocyanin promoter PAT) sprayed with DL phosphinothricin; assay type: in vivo; conditions: spray, rates between 250 g/ha and 5 kg/ha
Excerpt: Analagous to example 1, in one variant of the example, the amino acid applied is racemic DL phosphinothricin. In this case the DNA construct used for transformation comprises, in addition to the DNA sequence encoding a D-amino acid oxidase under operable expression control of a tissue specific male floral promoter region such as ‘TA 29’, also a DNA sequence encoding a phosphinothricin N-acetyl transferase gene such as the ‘PAT’ gene under operable control of a promoter region such as that from the plastocyanin gene (in this case the region from the Pisum sativum plastocyanin gene).

[7] = system: wheat containing a PAT gene under barley plastocyanin promoter region; assay: Reproductive tolerance of wheat containing PAT gene under barley plastocyanin promoter to DL phosphinothricin; assay type: in vivo; conditions: rates up of at least 2 kg/ha
Excerpt: The current invention provides a method of overcoming the problem of enabling the use of a cheap commercial herbicide, DL phosphinothricin, as both weed control and hybridising agent in the production of hybrid cereals and which method, furthermore, provides resultant hybrid cereals or rice in which DL phosphinothricin (or L phosphinothricin) can be safely used for weed control without substantial loss of yield. As a yet further benefit, selfed seed from the F1 generation which may later arise as volunteers in subsequent crops will be easier to manage since they, themselves, will generally be sterile if sprayed with controlling amounts of DL phosphinothricin. The same will hold for the progeny of pollen outcrossing from the F1 plants to weeds (e.g. red rice) or other cereals. The current invention provides genes and enzymes that convert a non-phytotoxic component, D-phosphinothricin, of a commercial herbicide formulation DL phosphinothricin, into the active L form. The PAT gene which converts L-phosphinothricin to N-acetyl L-phosphinithricin is known already and is used commercially to provide tolerance to DL phosphinothricin in crops. […]

[8] = spray, rates between 250 g/ha and 5 kg/ha

Compound | seed production after treatment [1] | viable pollen production after treatment [1] | further results
N[C@H](CC(=O)O)C(=O)O [D aspartate] | relatively little or no seed | near normal levels of viable pollen | –
C[C@@H](N)C(=O)O [D alanine] | relatively little or no seed | near normal levels of viable pollen | –
CSCC[C@@H](N)C(=O)O [D methionine] | relatively little or no seed | near normal levels of viable pollen | –
CC(C)C[C@@H](N)C(=O)O [D leucine] | relatively little or no seed | near normal levels of viable pollen | –
CP(=O)(O)CC[C@H](N)C(=O)O [L-form, L-phosphinothricin, reference compound] | – | – | oxidation of pure enantiomer in control experiments [2]: not oxidised at all
NC(=O)C[C@@H](N)C(=O)O [D asparagine] | relatively little or no seed | near normal levels of viable pollen | –
CP(=O)(O)CC[C@@H](N)C(=O)O [D-phosphinothricin] | relatively little or no seed | near normal levels of viable pollen | oxidation of pure enantiomer in control experiments [2]: up to twice the rate that the DL is
N[C@H](CCC(=O)O)C(=O)O [D glutamate] | relatively little or no seed | near normal levels of viable pollen | –
CP(=O)(O)CCC(N)C(=O)O (stereo not drawn) [DL phosphinothricin] | – | – | rate of oxidation (oxygen consumption) [3]: ~14 nmol/min/mg of protein of crude extract; rate of oxidation (oxygen consumption) [4]: ~4 nmol/min/mg of protein of crude extract; yield of plastocyanin/PAT plants without D to L converting activity in floral tissues ([5]; no heterologous D-amino acid oxidase co-expressed in floral tissues): no significant loss of yield; reproductive tolerance to the herbicide of plants with plastocyanin promoter/PAT gene ([5]; rates in excess of 2 kg/ha): substantially complete reproductive tolerance; female fertility of treated plants [5, 8]: conditionally female sterile; male fertility of treated plants [5, 8]: normal or near-normal male fertility; visible damage of treated plants [5, 8]: not visibly damaged; female fertility of treated plants [6]: normal or near-normal female fertility; male fertility of treated plants [6]: conditionally male sterile; visible damage of treated plants [6]: not visibly damaged; reproductive tolerance to application [7]: substantially reproductively tolerant
